# Experimental data: patent publication US20130211371A1, “FORMULATIONS AND METHODS OF TREATMENT OF SKIN CONDITIONS” (Hy Biopharma, Inc., priority 2010, published 2013)
# Marks after values point to notes of the source that are not given here.
# Columns and labels:
# MF lesions = assay: Phase II study, topical hypericin and visible light, MF arm; format: in vivo, human; details: 6 weeks
# Experimental: (§1) This study is designed to evaluate the safety and efficacy of topical hypericin in concentrations of 0.1% and 0.25% under occlusion for 24 hours followed by administration of visible light in doses ranging from 8 to 20 J/cm^2 twice weekly for 6 weeks for the treatment of psoriasis or MF. One of the four centers involved in the study administered topical hypericin in concentrations of 0.05 and 0.1%. The concentration of hypericin and the dose of light were based upon the Phase I study described above with normal volunteers.
# A standardized topical amount of hypericin in either ointment or liquid formula was applied to defined plaques on the skin of volunteer subjects. […]
# (§2) Skin reactions were evaluated each week immediately after irradiation and again at 48 and 72 hours later. The sites of irradiation were examined twice per week thereafter and all changes; e.g., erythema, edema, desquamation, pigmentation, etc, were recorded.
# Lesion responses in this study were scored in accordance with the following scales at each patient evaluation:lesional CR=complete regression of the treated lesion; PR=>50% decrease in lesional area during treatment; Stable=<50% decrease in size or <25% increase in size during therapy; Progression=>25% increase in size during therapy. […] If so, the patient was scored as a responder for that lesion. […]
# psoriasis lesions = assay: Phase II study, topical hypericin and visible light, psoriasis arm; format: in vivo, human; details: All Ointment + Liquid, 6 weeks
# Experimental: as §1
# A standardized topical amount of hypericin in either ointment or liquid formula was applied to defined plaques on the skin of volunteer subjects. The amount of hypericin in each topical application was as follows: 0.05%=0.005 mg/cm^2; 0.1%=0.01 mg/ cm^2, and 0.25%=0.025 mg/ cm^2.
# Each hypericin treatment or placebo was applied twice weekly for a period of 24 hours prior to irradiation. Each application site was covered by non-absorbing Webril cotton of equal area and occluded with occlusive tape (Blenderm, 3M); excess drug was removed prior to irradiation (24 hours post drug application).
# Irradiation was undertaken using visible fluorescent bulbs (590-650 nm) (GE cool white fluorescent bulbs, 20-watt fluorescent tubes housed in a reflecting bank) for a period not to exceed 15 minutes (total number of joules approximately 5/cm^2). The light dose was administered twice weekly, separated by at least one day.
# The light dose was increased once weekly by 1 joule/cm^2 until symptoms or signs of phototoxicity appeared. At that point, the dose could either be maintained or reduced by 1 joule/cm^2 if phototoxicity was pronounced (skin erythema of greater than 1+[minimal visible erythema).
# as §2
# Lesion responses in this study were scored in accordance with the following scales at each patient evaluation:lesional CR=complete regression of the treated lesion; PR=>50% decrease in lesional area during treatment; Stable=<50% decrease in size or <25% increase in size during therapy; Progression=>25% increase in size during therapy. The success/failure criterion for each lesion on each patient was whether there was a 50% or better improvement in the lesion area at the end of the 6-week treatment cycle. If so, the patient was scored as a responder for that lesion. Table 1 indicates the rating criteria for patient response.
# All patients receiving treatment for MF were treated with the ointment preparation. For patients with psoriasis, 5 patients were treated with 0.1% and 0.25% aqueous solutions of hypericin in dimethyl sulfoxide (DMSO) and 6 patients were treated with the USP
# Hydrophilic Ointment preparations. The liquid dosage form consisted of dissolving either 0.2 mL or 0.5 mL hypericin stock solution (polyethylene glycol solution) in 44.8 or 44.5 mL of 50% DMSO/water and mixing with a magnetic stirrer.
# The response or lack of response, of each lesion treated with either placebo ointment or with a hypericin-containing ointment was analyzed as a binomial (i.e., yes/no) distribution.
# This was an appropriate analysis for response which was quantal in nature. For the null hypothesis (no treatment response) it was assumed that spontaneous resolution of the lesion by the protocol specified 6-week time point would not occur. That is, the true probability of spontaneous lesion regression (defined as <50% of its baseline size for CTCL and to <50% of its combined baseline score for psoriasis lesions) was taken as zero (0%). For the MF analysis, a repeated measures logistic regression was employed to obtain p-values. For analysis of the psoriasis data, a likelihood ratio chi-square test was employed.
# [1] = Phase II study, adverse events; format: in vivo, human
# Experimental: as §2
# [2] = Phase I clinical trial, cutaneous phototoxicity of topical hypericin with visible light; format: in vivo, human
# [3] = cited from earlier work
smiles,measurement,setting,value
"Cc1cc(O)c2c(=O)c3c(O)cc(O)c4c5c(O)cc(O)c6c(=O)c7c(O)cc(C)c8c1c2c(c34)c(c78)c65 [Hypericin, 4,5,7,4′,5′,7′ -dimethyl-meso naphthodiantbrone]","Percent Responders, Hypericin 0.1% Dose (MF)",MF lesions; ointment 0.1%,41.7%
same,"Percent Responders, Hypericin 0.25% Dose (MF)",MF lesions; ointment 0.25%,55.6%
same,"Percent Responders, Response to 0.05% Dose (psoriasis)",psoriasis lesions; 0.05%,9.1%
same,"Responders/Total, Response to 0.05% Dose (psoriasis)",psoriasis lesions; 0.05%,1/11
same,"Percent Responders, Hypericin 0.1% Dose (psoriasis)",psoriasis lesions; 0.1%,"36.4^a,b %"
same,"Responders/Total, Hypericin 0.1% Dose (psoriasis)",psoriasis lesions; 0.1%,4/11
same,"Percent Responders, Hypericin 0.1% Dose (psoriasis)","psoriasis lesions; 0.1%, listed as hypericin",36.4%
same,"Percent Responders, Hypericin 0.25% Dose (psoriasis)",psoriasis lesions; 0.25%,45.4%^b
same,"Responders/Total, Hypericin 0.25% Dose (psoriasis)",psoriasis lesions; 0.25%,5/11
same,"Percent Responders, Hypericin 0.25% Dose (psoriasis)","psoriasis lesions; 0.25%, listed as hypericin",45.4%
same,"Percent Responders, All Hypericin Responders (psoriasis)",psoriasis lesions; any dose,54.6%^b
same,"Responders/Total, All Hypericin Responders (psoriasis)",psoriasis lesions; any dose,6/11
same,Deaths or serious adverse events / overall safety,[1]; MF and psoriasis patients,No deaths or serious adverse events
same,Reported adverse events,[1]; at the application site after visible light,"mild to moderate burning, itching, erythema, and pruritus at the application site"
same,Cutaneous reactions at 0.02%,"[2]; 0.02% hypericin, any dose of light",no cutaneous reactions
same,Cutaneous photosensitivity at 0.1% and 0.5%,"[2]; topical under occlusion, visible light 24 hours after application",causes cutaneous photosensitivity
same,half life,[3]; in vivo,20 to 24 h
same,bioavailable following oral administration,[3]; oral,about 20%
